Legend:
MDA-MB-435 = assay: Growth inhibition of human MDA-MB-435 cells incubated for 48 hrs by sulforhodamine B assay; assay type: functional; settings: MDA-MB-435, 48 h
RPMI-8226 = assay: Growth inhibition of human RPMI8226 cells incubated for 48 hrs by sulforhodamine B assay; assay type: functional; settings: RPMI-8226, 48 h
UACC-257 = assay: Growth inhibition of human UACC257 cells incubated for 48 hrs by sulforhodamine B assay; assay type: functional; settings: UACC-257, 48 h
NCI-H23 = assay: Growth inhibition of human NCI-H23 cells incubated for 48 hrs by sulforhodamine B assay; assay type: functional; settings: NCI-H23, 48 h
BT-549 = assay: Growth inhibition of human BT549 cells incubated for 48 hrs by sulforhodamine B assay; assay type: functional; settings: BT-549, 48 h
SNB-19 = assay: Growth inhibition of human SNB19 cells incubated for 48 hrs by sulforhodamine B assay; assay type: functional; settings: SNB-19, 48 h
NCI-H322M = assay: Growth inhibition of human NCI-H322M cells incubated for 48 hrs by sulforhodamine B assay; assay type: functional
HT-29 = assay: Growth inhibition of human HT-29 cells incubated for 48 hrs by sulforhodamine B assay; assay type: functional; settings: HT-29, 48 h
DU-145 = assay: Growth inhibition of human DU145 cells incubated for 48 hrs by sulforhodamine B assay; assay type: functional; settings: DU-145, 48 h
IGROV-1 = assay: Growth inhibition of human IGROV1 cells incubated for 48 hrs by sulforhodamine B assay; assay type: functional; settings: IGROV-1, 48 h
SF-295 = assay: Growth inhibition of human SF295 cells incubated for 48 hrs by sulforhodamine B assay; assay type: functional; settings: SF-295, 48 h
OVCAR-4 = assay: Growth inhibition of human OVCAR4 cells incubated for 48 hrs by sulforhodamine B assay; assay type: functional; settings: OVCAR-4, 48 h
A498 = assay: Growth inhibition of human A498 cells incubated for 48 hrs by sulforhodamine B assay; assay type: functional; settings: A498, 48 h
KM12 = assay: Growth inhibition of human KM12 cells incubated for 48 hrs by sulforhodamine B assay; assay type: functional; settings: KM12, 48 h
NCI-H460 = assay: Growth inhibition of human NCI-H460 cells incubated for 48 hrs by sulforhodamine B assay; assay type: functional; settings: NCI-H460, 48 h
NCI-H522 = assay: Growth inhibition of human NCI-H522 cells incubated for 48 hrs by sulforhodamine B assay; assay type: functional; settings: NCI-H522, 48 h
SR = assay: Growth inhibition of human SR cells incubated for 48 hrs by sulforhodamine B assay; assay type: functional
HOP-92 = assay: Growth inhibition of human HOP92 cells incubated for 48 hrs by sulforhodamine B assay; assay type: functional; settings: HOP-92, 48 h
SK-MEL-5 = assay: Growth inhibition of human SK-MEL-5 cells incubated for 48 hrs by sulforhodamine B assay; assay type: functional; settings: SK-MEL-5, 48 h
786-0 = assay: Growth inhibition of human 786-0 cells incubated for 48 hrs by sulforhodamine B assay; assay type: functional; settings: 786-0, 48 h
RXF 393 = assay: Growth inhibition of human RXF393 cells incubated for 48 hrs by sulforhodamine B assay; assay type: functional; settings: RXF 393, 48 h
SN12C = assay: Growth inhibition of human SN12C cells incubated for 48 hrs by sulforhodamine B assay; assay type: functional
[1] = molecular target: RAF proto-oncogene serine/threonine-protein kinase (Homo sapiens, UniProt P04049); assay: Inhibition of human c-RAF using MEK1 as substrate in presence of [33P]ATP by Hotspot assay
NCI/ADR-RES = assay: Growth inhibition of human NCI/ADR-RES cells incubated for 48 hrs by sulforhodamine B assay; assay type: functional
NCI-H226 = assay: Growth inhibition of human NCI-H226 cells incubated for 48 hrs by sulforhodamine B assay; assay type: functional; settings: NCI-H226, 48 h
SK-MEL-28 = assay: Growth inhibition of human SK-MEL-28 cells incubated for 48 hrs by sulforhodamine B assay; assay type: functional; settings: SK-MEL-28, 48 h
ACHN = assay: Growth inhibition of human ACHN cells incubated for 48 hrs by sulforhodamine B assay; assay type: functional
SK-OV-3 = assay: Growth inhibition of human SKOV3 cells incubated for 48 hrs by sulforhodamine B assay; assay type: functional; settings: SK-OV-3, 48 h
Hs-578T = assay: Growth inhibition of human Hs 578T cells incubated for 48 hrs by sulforhodamine B assay; assay type: functional
U-251 = assay: Growth inhibition of human U251 cells incubated for 48 hrs by sulforhodamine B assay; assay type: functional; settings: U-251, 48 h
EKVX = assay: Growth inhibition of human EKVX cells incubated for 48 hrs by sulforhodamine B assay; assay type: functional
UACC-62 = assay: Growth inhibition of human UACC62 cells incubated for 48 hrs by sulforhodamine B assay; assay type: functional; settings: UACC-62, 48 h
[2] = read-out: LC50 (the source's name)

Sequence of RAF proto-oncogene serine/threonine-protein kinase (P04049 whole entry): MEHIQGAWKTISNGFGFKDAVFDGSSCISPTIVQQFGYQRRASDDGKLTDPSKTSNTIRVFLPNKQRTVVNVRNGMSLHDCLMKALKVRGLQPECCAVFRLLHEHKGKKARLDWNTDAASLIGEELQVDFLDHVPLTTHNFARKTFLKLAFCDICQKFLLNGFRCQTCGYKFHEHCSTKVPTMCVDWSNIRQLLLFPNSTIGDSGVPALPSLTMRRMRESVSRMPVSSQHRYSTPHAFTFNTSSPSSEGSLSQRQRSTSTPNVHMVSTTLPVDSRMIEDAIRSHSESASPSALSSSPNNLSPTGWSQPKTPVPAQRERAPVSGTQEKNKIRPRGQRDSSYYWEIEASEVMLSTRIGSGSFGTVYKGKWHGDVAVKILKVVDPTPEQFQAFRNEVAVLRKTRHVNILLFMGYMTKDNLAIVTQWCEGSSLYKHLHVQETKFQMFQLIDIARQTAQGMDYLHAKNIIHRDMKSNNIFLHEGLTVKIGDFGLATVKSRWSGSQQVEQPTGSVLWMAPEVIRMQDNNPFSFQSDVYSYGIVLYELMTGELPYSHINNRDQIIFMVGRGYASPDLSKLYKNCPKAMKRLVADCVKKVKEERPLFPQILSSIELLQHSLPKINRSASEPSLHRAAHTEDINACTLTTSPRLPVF

## COc1cc2cc(Oc3ccc(NC(=O)Nc4cc(C(F)(F)F)cc(C(F)(F)F)c4)cc3)c(C)nc2cc1OC
MDA-MB-435
  GI50: 1.8 µM
  TGI: 4.28 µM
MDA-MB-435; [2]
  CC50: 11.6 µM
RPMI-8226
  GI50: 0.41 to 0.46 µM
  LC50 (lethal concentration, 50% cell kill): > 100 µM
  TGI: 5.51 µM
UACC-257
  GI50: 2.48 µM
  TGI: 5.49 µM
UACC-257; [2]
  CC50: 20 µM
NCI-H23
  GI50: 0.639 to 0.64 µM
  TGI: 3.55 µM
NCI-H23; [2]
  CC50: 32.3 µM
BT-549
  GI50: 1.75 µM
  TGI: 3.76 µM
BT-549; [2]
  CC50: 30.1 µM
SNB-19
  GI50: 0.65 to 0.654 µM
  TGI: 2.16 µM
SNB-19; [2]
  CC50: 5.73 µM
NCI-H322M
  GI50: 1.16 µM
  TGI: 2.57 µM
NCI-H322M; [2]
  CC50: 5.7 µM
HT-29
  GI50: 1.52 µM
  TGI: 3.46 µM
HT-29; [2]
  CC50: 7.91 µM
DU-145
  GI50: 2.38 µM
  TGI: 9.36 µM
DU-145; [2]
  CC50: 8.06 µM
IGROV-1
  GI50: 0.51 µM
  TGI: 2.3 µM
IGROV-1; [2]
  CC50: 8.68 µM
SF-295
  GI50: 0.48 to 0.481 µM
  TGI: 1.94 µM
SF-295; [2]
  CC50: 5.71 µM
OVCAR-4
  GI50: 1.22 µM
  TGI: 4.44 µM
OVCAR-4; [2]
  CC50: 80.2 µM
A498
  GI50: 1.6 µM
  TGI: 4.29 µM
A498; [2]
  CC50: 7.98 µM
KM12
  GI50: 0.918 to 0.92 µM
  TGI: 2.46 µM
KM12; [2]
  CC50: 6.27 µM
NCI-H460
  GI50: 0.96 µM
  TGI: 2.72 µM
NCI-H460; [2]
  CC50: 7.53 µM
NCI-H522
  GI50: 1.25 µM
  TGI: 2.95 µM
NCI-H522; [2]
  CC50: 6.95 µM
SR
  GI50: 1.62 µM
  TGI: 5.97 µM
SR; [2]
  CC50: > 100 µM
HOP-92
  GI50: 1.12 µM
  LC50: 40.9 µM
  TGI: 3.9 µM
SK-MEL-5
  GI50: 1.62 µM
  TGI: 3.28 µM
SK-MEL-5; [2]
  CC50: 6.67 µM
786-0
  GI50: 1.61 µM
  TGI: 3.09 µM
786-0; [2]
  CC50: 13.8 µM
RXF 393
  GI50: 2.06 µM
  TGI: 4.78 µM
RXF 393; [2]
  CC50: 5.94 µM
SN12C
  GI50: 0.59 µM
  TGI: 2.09 µM
SN12C; [2]
  CC50: 32.5 µM
[1]
  IC50: 0.37 µM
NCI/ADR-RES
  GI50: 1.27 µM
  TGI: 3.44 µM
NCI/ADR-RES; [2]
  CC50: 7.04 µM
NCI-H226
  GI50: 1.8 µM
  TGI: 3.91 µM
NCI-H226; [2]
  CC50: 8.53 µM
SK-MEL-28
  GI50: 1.19 µM
  TGI: 3.09 µM
SK-MEL-28; [2]
  CC50: 8.03 µM
ACHN
  GI50: 0.39 µM
  TGI: 1.69 µM
ACHN; [2]
  CC50: 51.6 µM
SK-OV-3
  GI50: 1.71 µM
  TGI: 3.47 µM
SK-OV-3; [2]
  CC50: 5.91 µM
Hs-578T
  GI50: 2.65 µM
  TGI: 6.94 µM
Hs-578T; [2]
  CC50: 8.07 µM
U-251
  GI50: 1.08 µM
  TGI: 2.47 µM
U-251; [2]
  CC50: 5.61 µM
EKVX
  GI50: 1 µM
  LC50 (concentration killing 50% of cells): 8.88 µM
  TGI: 2.98 µM
UACC-62
  GI50: 0.56 µM
  TGI: 2.09 µM
UACC-62; [2]
  CC50: 6.03 µM
